System: 233499-124-R-J3-PDC complex spheroid viability
Assay: Anticancer human tumor 233499-124-R-J3-PDC patient-derived colon adenocarcinoma cell line growth inhibition [CLK]
Settings: for IC50: curve of first compound; for viability, T/C: stronger effect = lower value
In short: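 Multi-cell-type spheroids combined patient-derived tumor cells with HUVEC endothelial cells and human mesenchymal stem cells. Paired agents were dosed in half-log steps down from about clinical Cmax, or from 10 microM where Cmax was unknown.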
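Also: spheroids exposed to the drug combinations for seven days.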
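For viability, T/C in this document: percent viability relative to DMSO vehicle control wells taken as 100%.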

Nc1ccccc1NC(=O)c1ccc(CNC(=O)OCc2cccnc2)cc1 + CN1CCN(c2cc(C(=O)Nc3cc4cc(-c5cnn(C)c5)ccc4cn3)ccn2)CC1
IC50 (second compound 0.0316 µM): 1.69 µM | IC50 (second compound 0.1 µM): 1.11 µM | IC50 (second compound 0.316 µM): < 0.0316 µM | IC50 (second compound 1 µM): < 0.0316 µM | IC50 (second compound 3.16 µM): < 0.0316 µM | IC50 (second compound 10 µM): < 0.0316 µM | viability, T/C (second compound 0.0316 µM, first compound 0.0316 µM): 96.3% | viability, T/C (second compound 0.0316 µM, first compound 0.1 µM): 89.9% | viability, T/C (second compound 0.0316 µM, first compound 0.316 µM): 93.6% | viability, T/C (second compound 0.0316 µM, first compound 1 µM): 80.5% | viability, T/C (second compound 0.0316 µM, first compound 3.16 µM): 13.5% | viability, T/C (second compound 0.0316 µM, first compound 10 µM): 0.6% | viability, T/C (second compound 0.1 µM, first compound 0.0316 µM): 89.3% | viability, T/C (second compound 0.1 µM, first compound 0.1 µM): 100% | viability, T/C (second compound 0.1 µM, first compound 0.316 µM): 80.2% | viability, T/C (second compound 0.1 µM, first compound 1 µM): 56.6% | viability, T/C (second compound 0.1 µM, first compound 3.16 µM): 2.92% | viability, T/C (second compound 0.1 µM, first compound 10 µM): 0.44% | viability, T/C (second compound 0.316 µM, first compound 0.0316 µM): 17.7% | viability, T/C (second compound 0.316 µM, first compound 0.1 µM): 47.3% | viability, T/C (second compound 0.316 µM, first compound 0.316 µM): 2.45% | viability, T/C (second compound 0.316 µM, first compound 1 µM): 0.63% | viability, T/C (second compound 0.316 µM, first compound 3.16 µM): 0.47% | viability, T/C (second compound 0.316 µM, first compound 10 µM): 0.63% | viability, T/C (second compound 1 µM, first compound 0.0316 µM): 0.46% | viability, T/C (second compound 1 µM, first compound 0.1 µM): 0.44% | viability, T/C (second compound 1 µM, first compound 0.316 µM): 0.62% | viability, T/C (second compound 1 µM, first compound 1 µM): 0.56% | viability, T/C (second compound 1 µM, first compound 3.16 µM): 0.57% | viability, T/C (second compound 1 µM, first compound 10 µM): 1.23% | viability, T/C (second compound 3.16 µM, first compound 0.0316 µM): 0.65% | viability, T/C (second compound 3.16 µM, first compound 0.1 µM): 0.68% | viability, T/C (second compound 3.16 µM, first compound 0.316 µM): 0.7% | viability, T/C (second compound 3.16 µM, first compound 1 µM): 0.66% | viability, T/C (second compound 3.16 µM, first compound 3.16 µM): 0.69% | viability, T/C (second compound 3.16 µM, first compound 10 µM): 0.59% | viability, T/C (second compound 10 µM, first compound 0.0316 µM): 0.18% | viability, T/C (second compound 10 µM, first compound 0.1 µM): 0.24% | viability, T/C (second compound 10 µM, first compound 0.316 µM): 0.28% | viability, T/C (second compound 10 µM, first compound 1 µM): 0.28% | viability, T/C (second compound 10 µM, first compound 3.16 µM): 0.26% | viability, T/C (second compound 10 µM, first compound 10 µM): 0.35%

— PubChem BioAssay AID2060613 (Molecular Pharmacology Branch, DTP, NCI, 2025)
